# Assay results reported in patent publication US7767694B2, “Pharmaceutical composition having prokinetic effect” (N-Gene Research Laboratories Inc., priority 2004, dated 2010).
# Test system: sphincter of Oddi muscle rings
# Assay: Biliary sphincter of Oddi muscle rings with cholecystokinin octapeptide and BGP-15 (isometric tension, organ bath)
# Settings: BGP-15 20 mg/kg daily for 5 days, CCK-8 5 × 10^−7 M, combination: BGP-15 pretreatment 5 days then CCK-8, average of 6
# Method: The sphincter of Oddi was removed from adult male New Zealand white rabbits weighing 3.5-4 kg, and muscle ring of about 3 mm width were prepared. […] The organ bath was maintained at 37° C. and aerated continuously with carbogen (5% of carbon dioxide in oxygen according to European Pharmacopoeia, Edition III). The initial tension was set to 10 mN and the rings were allowed to equilibrate over 1 hour.
# In case of each test type, 6 parallel experiments were carried out, and the average of the results obtained was determined. The following test types were made:
# treatment with cholecystokinin octapeptide to simulate the effect existing in the living organism,
# treatment with organ bath (control group).
# In the treatment with cholecystokinin octapeptide, 5×10^-7 M of the polypeptide was employed.
substance,measurement,setting,value
Cholecystokinin octapeptide [CCK-8],Max. relaxation,control 0,5 mN
same,Max. tonic contraction,control 10,24 mN
same,Frequency of contraction,control 13,19 c/min.
same,Max. contraction,control 16,29 mN
